Experimental data as given in patent US20050059585A1, “Methionine aminopeptidase-2 inhibitors and methods of use thereof” (Praecis Pharmaceuticals Inc., priority 2000, published 2005).

Legend:
[1] = test system: human lymphoblast SR cells; assay: Inhibition of SR cell line in culture, 3H-thymidine incorporation assay; type: cell-based
Experimental: […] Incubations were conducted for 3, 5 or 6 days after which cell proliferation relative to vehicle treatment was determined using a ^3H-thymidine incorporation assay. Medium was replaced and fresh drug was added on day 3 for the 5 and 6 day assays.

[2] = test system: human umbilical vein endothelial cells (HUVEC); assay: human endothelial cell growth assay (Huvec assay); type: cell-based; settings: Homo sapiens, HUVEC; read-out: IC50 (pM), Huvec Assay
Experimental: For the human endothelial cell growth assay, human umbilical vein endothelial cells (HUVEC) were maintained in Clonetics endothelial growth medium (EGM) in a 37° C. humidified incubator. Cells were detached with trypsin and pelleted by centrifugation at 300×g for 5 minutes at room temperature. HUVEC were added to 96-well plates at 5,000 cells/well. After incubating for 6 hours, the medium was replaced with 0.2 ml fresh EGM supplemented with 0.5 nM bFGF and the desired concentration of test angiogenesis inhibitor compound. Test angiogenesis inhibitor compounds were initially dissolved in ethanol at stock concentrations of either 10 mM or 0.1 mM, and subsequently diluted in EGM to obtain concentrations from […] to 10 μM. After 48 hours at 37° C., the medium was replaced with fresh bFGF-supplemented EGM and test angiogenesis inhibitor compound. Following incubation for an additional 48 hours at 37° C. MTT (3-[4,5-dimethylthiazol-2-yl]-2,5-diphenyl-tetrazolium bromide) was added to 1 mg/ml. After 2-4 hours at 37° C. the medium was replaced with 0.1 ml/well isopropanol. The plates were placed on a shaker for 15 minutes at room temperature and analyzed in a Labsystems Multiskan plate spectrophotometer at an optical density of 570 nm.

SR lymphoma tumor = assay: In vivo efficacy in SR lymphoma cell tumors grown in mice
Experimental: SR lymphoma tumor cells were injected subcutaneously into SCID/NCr female mice. Tumors were measured using a caliper every 3-4 days beginning on day 12 post-implantation of tumor cells. Animals were weighed routinely on the same days as tumor measurments and monitored for clinical signs of any adverse, drug-related side effects. Treatment with Compound 5 or vehicle began on Day 12 for 5 weeks and ended on Day 44. The endpoints evaluated were optimal percent treated/control (% T/C) and tumor growth delay measured at multiple timepoints during the study.

Question: What does the source list for `CO[C@@H]1[C@H](OC(=O)N[C@@H](C(N)=O)C(C)C)CC[C@]2(CO2)[C@H]1[C@@]1(C)O[C@@H]1CC=C(C)C` [Example 5, (1-Carbamoyl-2-methyl-propyl)-carbamic acid-(3R, 4S, 5S, 6R )-5-methoxy-4-[(2R, 3R)-2-methyl-3-(3-methyl-but-2-enyl)-oxiranyl]-1-oxa-spiro[2.5]oct-6-yl ester]?
Answer: GI50 ([1]; Homo sapiens, SR, 5 and 6 day assays): 500 pM; inhibition of proliferation of the SR cell line ([1]; concentrations from 1-100 nM, relative to vehicle): 59-75%; Maximal inhibition ([1]; five or six days of exposure): greater than 90%; IC50 [2]: 93 pM; optimal % T/C (SR lymphoma tumor; oral route, 15 mg/kg): 48%; optimal % T/C (SR lymphoma tumor; oral route, 30 mg/kg): 43%; tumor growth delay (SR lymphoma tumor; orally, 15 mg/kg): 29%; tumor growth delay (SR lymphoma tumor; orally, 30 mg/kg): 28%; tumor growth delay (SR lymphoma tumor; subcutaneous route, 15 mg/kg): 18%; tumor growth delay (SR lymphoma tumor; subcutaneous route, 30 mg/kg): 19%; optimal % T/C (SR lymphoma tumor; subcutaneously, 15 mg/kg): 70%; optimal % T/C (SR lymphoma tumor; subcutaneously, 30 mg/kg): 50%
